Reference: patent US7138361B2, “Herbicidal heterocycles” (E. I. du Pont de Nemours and Company, priority 2000, dated 2006)

Legend:
Assay in all cases: Test C preemergence
Assay type in all cases: in vivo
[1] = test system: common ragweed (Ambrosia elatior); details: for Plant response rating (0 to 100), Ragweed, Common: Rate 500 g/ha, visual evaluation after 12 to 14 days
Outline: (§1)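 Formulation: non-phytotoxic solvent mix incl. surfactant. Pre: applied right after planting. Post: 1–4-leaf seedlings. Read: visual 0–100, day 12–14, greenhouse.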

[2] = test system: giant foxtail (Setaria faberii); details: for Plant response rating (0 to 100), Foxtail, Giant: Rate 500 g/ha, visual evaluation after 12 to 14 days
Outline: as §1

[3] = test system: morningglory (Ipomoea hederacea); details: for Plant response rating (0 to 100), Morningglory: Rate 500 g/ha, visual evaluation after 12 to 14 days
Outline: as §1

Nightshade [4] = test system: Nightshade
[5] = test system: yellow nutsedge (Cyperus esculentus); details: for Plant response rating (0 to 100), Nutsedge: Rate 500 g/ha, visual evaluation after 12 to 14 days
Outline: as §1

[6] = test system: bermudagrass (Cynodon dactylon); details: for Plant response rating (0 to 100 where 0 is no effect and 100 is complete control), Bermudagrass: Rate 500 g/ha, visual evaluation after 12 to 14 days
Outline: as §1

corn (Zea mays) = details: for Plant response rating (0 to 100), Corn: Rate 500 g/ha, visual evaluation after 12 to 14 days
Outline: as §1

[7] = test system: johnsongrass (Sorghum halepense); details: for Plant response rating (0 to 100), Johnsongrass: Rate 500 g/ha, visual evaluation after 12 to 14 days
Outline: as §1

[8] = test system: lambsquarters (Chenopodium album); details: for Plant response rating (0 to 100), Lambsquarters: Rate 500 g/ha, visual evaluation after 12 to 14 days
Outline: as §1

[9] = test system: crabgrass (Digitaria sanguinalis); details: for Plant response rating (0 to 100), Crabgrass: Rate 500 g/ha, visual evaluation after 12 to 14 days
Outline: as §1

Sunflower = details: Rate 125 g/ha; scale 0 to 100, 0 no effect, 100 complete control
[10] = test system: velvetleaf (Abutilon theophrasti); details: for Plant response rating (0 to 100), Velvetleaf: Rate 500 g/ha, visual evaluation after 12 to 14 days
Outline: as §1

kochia (Kochia scoparia) = details: for Plant response rating (0 to 100), Kochia: Rate 500 g/ha, visual evaluation after 12 to 14 days
Outline: as §1

[11] = test system: pigweed (Amaranthus retroflexus); details: for Plant response rating (0 to 100), Pigweed: Rate 500 g/ha, visual evaluation after 12 to 14 days
Outline: as §1

soybean (Glycine max) = details: for Plant response rating (0 to 100), Soybean: Rate 500 g/ha, visual evaluation after 12 to 14 days
Outline: as §1

[12] = test system: woolly cupgrass (Eriochloa villosa); details: for Plant response rating (0 to 100), Cupgrass, Woolly: Rate 500 g/ha, visual evaluation after 12 to 14 days
Outline: as §1

[13] = test system: goosegrass (Eleusine indica); details: for Plant response rating (0 to 100), Goosegrass: Rate 500 g/ha, visual evaluation after 12 to 14 days
Outline: as §1

[14] = test system: cocklebur (Xanthium strumarium); details: for Plant response rating (0 to 100), Cocklebur: Rate 500 g/ha, visual evaluation after 12 to 14 days
Outline: as §1

[15] = test system: Surinam grass (Brachiaria decumbens); details: for Plant response rating (0 to 100), Surinam grass: Rate 500 g/ha, visual evaluation after 12 to 14 days
Outline: as §1

Nightshade [16] = details: Rate 500 g/ha, visual evaluation after 12 to 14 days
[17] = Rate 125 g/ha, scale 0 to 100, 0 no effect, 100 complete control
[18] = preemergence, Rate 62 g/ha, scale 0 to 100
[19] = preemergence, Rate 250 g/ha, scale 0 to 100, 0 no effect, 100 complete control
[20] = Rate 250 g/ha, scale 0 to 100, 0 no effect, 100 complete control

## CCCC(C)c1ccn(C2CCN(c3cccc(OC)c3)C2=O)n1 (stereo not drawn) [Compound 99]
[1]; [17]
  Plant response rating, Ragweed, Common: 0
[1]; [18]
  Plant response rating, Ragweed, Common: 0
[1]; preemergence
  Plant response rating (0 to 100), Ragweed, Common: 0
[1]; [19]
  Plant response rating, Ragweed, Common: 0
[2]; [17]
  Plant response rating, Foxtail, Giant: 20
[2]; [18]
  Plant response rating, Foxtail, Giant: 10
[2]; preemergence
  Plant response rating (0 to 100), Foxtail, Giant: 70
[2]; [19]
  Plant response rating, Foxtail, Giant: 20
[3]; [17]
  Plant response rating, Morningglory: 20
[3]; [18]
  Plant response rating, Morningglory: 0
[3]; preemergence
  Plant response rating (0 to 100), Morningglory: 20
[3]; [19]
  Plant response rating, Morningglory: 20
Nightshade [4]; Rate 62 g/ha, scale 0 to 100
  Plant response rating, Nightshade: 0
Nightshade [4]; [17]
  Plant response rating, Nightshade: 0
Nightshade [4]; [20]
  Plant response rating, Nightshade: 0
[5]; [17]
  Plant response rating, Nutsedge: 0
[5]; [18]
  Plant response rating, Nutsedge: 0
[5]; preemergence
  Plant response rating (0 to 100), Nutsedge: 90
[5]; [19]
  Plant response rating, Nutsedge: 0
[6]; [17]
  Plant response rating, Bermudagrass: 90
[6]; [18]
  Plant response rating, Bermudagrass: 90
[6]; preemergence
  Plant response rating (0 to 100 where 0 is no effect and 100 is complete control), Bermudagrass: 100
[6]; [19]
  Plant response rating, Bermudagrass: 100
Corn (Zea mays); [17]
  Plant response rating, Corn: 0
Corn (Zea mays); [18]
  Plant response rating, Corn: 0
Corn (Zea mays); preemergence
  Plant response rating (0 to 100), Corn: 20
Corn (Zea mays); [19]
  Plant response rating, Corn: 0
[7]; [17]
  Plant response rating, Johnsongrass: 0
[7]; [18]
  Plant response rating, Johnsongrass: 0
[7]; preemergence
  Plant response rating (0 to 100), Johnsongrass: 90
[7]; [19]
  Plant response rating, Johnsongrass: 0
[8]; [17]
  Plant response rating, Lambsquarters: 100
[8]; [18]
  Plant response rating, Lambsquarters: 100
[8]; preemergence
  Plant response rating (0 to 100), Lambsquarters: 100
[8]; [19]
  Plant response rating, Lambsquarters: 100
[9]; [17]
  Plant response rating, Crabgrass: 100
[9]; [18]
  Plant response rating, Crabgrass: 100
[9]; preemergence
  Plant response rating (0 to 100), Crabgrass: 100
[9]; [19]
  Plant response rating, Crabgrass: 100
Sunflower
  Plant response rating, Sunflower: 0
[10]; [17]
  Plant response rating, Velvetleaf: 0
[10]; [18]
  Plant response rating, Velvetleaf: 0
[10]; preemergence
  Plant response rating (0 to 100), Velvetleaf: 0
[10]; [19]
  Plant response rating, Velvetleaf: 0
Kochia (Kochia scoparia); [17]
  Plant response rating, Kochia: 90
Kochia (Kochia scoparia); [18]
  Plant response rating, Kochia: 80
Kochia (Kochia scoparia); preemergence
  Plant response rating (0 to 100), Kochia: 100
Kochia (Kochia scoparia); [19]
  Plant response rating, Kochia: 90
[11]; [17]
  Plant response rating, Pigweed: 90
[11]; [18]
  Plant response rating, Pigweed: 0
[11]; preemergence
  Plant response rating (0 to 100), Pigweed: 70
[11]; [19]
  Plant response rating, Pigweed: 20
Soybean (Glycine max); [17]
  Plant response rating, Soybean: 0
Soybean (Glycine max); [18]
  Plant response rating, Soybean: 0
Soybean (Glycine max); preemergence
  Plant response rating (0 to 100), Soybean: 0
Soybean (Glycine max); [19]
  Plant response rating, Soybean: 0
[12]; [17]
  Plant response rating, Cupgrass, Woolly: 0
[12]; [18]
  Plant response rating, Cupgrass, Woolly: 0
[12]; preemergence
  Plant response rating (0 to 100), Cupgrass, Woolly: 100
[12]; [19]
  Plant response rating, Cupgrass, Woolly: 10
[13]; [17]
  Plant response rating, Goosegrass: 80
[13]; [18]
  Plant response rating, Goosegrass: 80
[13]; preemergence
  Plant response rating (0 to 100), Goosegrass: 100
[13]; [19]
  Plant response rating, Goosegrass: 90
[14]; [17]
  Plant response rating, Cocklebur: 0
[14]; [18]
  Plant response rating, Cocklebur: 0
[14]; preemergence
  Plant response rating (0 to 100), Cocklebur: 0
[14]; [19]
  Plant response rating, Cocklebur: 0
[15]; [17]
  Plant response rating, Surinam grass: 0
[15]; [18]
  Plant response rating, Surinam grass: 0
[15]; preemergence
  Plant response rating (0 to 100), Surinam grass: 90
[15]; [19]
  Plant response rating, Surinam grass: 0
Nightshade [16]
  Plant response rating (0 to 100), Nightshade: 10

## CCCC(C)c1ccn(C2CCN(c3cccc(C(F)(F)F)c3)C2=O)n1 (stereo not drawn) [Compound 100]
[1]; [17]
  Plant response rating, Ragweed, Common: 0
[1]; [18]
  Plant response rating, Ragweed, Common: 0
[1]; preemergence
  Plant response rating (0 to 100), Ragweed, Common: 0
[1]; [19]
  Plant response rating, Ragweed, Common: 0
[2]; [17]
  Plant response rating, Foxtail, Giant: 10
[2]; [18]
  Plant response rating, Foxtail, Giant: 90
[2]; preemergence
  Plant response rating (0 to 100), Foxtail, Giant: 100
[2]; [19]
  Plant response rating, Foxtail, Giant: 40
[3]; [17]
  Plant response rating, Morningglory: 0
[3]; [18]
  Plant response rating, Morningglory: 0
[3]; preemergence
  Plant response rating (0 to 100), Morningglory: 0
[3]; [19]
  Plant response rating, Morningglory: 0
Nightshade [4]; Rate 62 g/ha, scale 0 to 100
  Plant response rating, Nightshade: 0
Nightshade [4]; [17]
  Plant response rating, Nightshade: 0
Nightshade [4]; [20]
  Plant response rating, Nightshade: 0
[5]; [17]
  Plant response rating, Nutsedge: 0
[5]; [18]
  Plant response rating, Nutsedge: 0
[5]; preemergence
  Plant response rating (0 to 100), Nutsedge: 0
[5]; [19]
  Plant response rating, Nutsedge: 0
[6]; [17]
  Plant response rating, Bermudagrass: 90
[6]; [18]
  Plant response rating, Bermudagrass: 90
[6]; preemergence
  Plant response rating (0 to 100 where 0 is no effect and 100 is complete control), Bermudagrass: 100
[6]; [19]
  Plant response rating, Bermudagrass: 100
Corn (Zea mays); [18]
  Plant response rating, Corn: 20
Corn (Zea mays); preemergence
  Plant response rating (0 to 100), Corn: 20
Corn (Zea mays); [19]
  Plant response rating, Corn: 20
[7]; [17]
  Plant response rating, Johnsongrass: 90
[7]; [18]
  Plant response rating, Johnsongrass: 0
[7]; preemergence
  Plant response rating (0 to 100), Johnsongrass: 100
[7]; [19]
  Plant response rating, Johnsongrass: 90
[8]; [17]
  Plant response rating, Lambsquarters: 100
[8]; [18]
  Plant response rating, Lambsquarters: 90
[8]; preemergence
  Plant response rating (0 to 100), Lambsquarters: 100
[8]; [19]
  Plant response rating, Lambsquarters: 100
[9]; [17]
  Plant response rating, Crabgrass: 100
[9]; [18]
  Plant response rating, Crabgrass: 100
[9]; preemergence
  Plant response rating (0 to 100), Crabgrass: 100
[9]; [19]
  Plant response rating, Crabgrass: 100
Sunflower
  Plant response rating, Sunflower: 0
[10]; [17]
  Plant response rating, Velvetleaf: 0
[10]; [18]
  Plant response rating, Velvetleaf: 0
[10]; preemergence
  Plant response rating (0 to 100), Velvetleaf: 0
[10]; [19]
  Plant response rating, Velvetleaf: 0
Kochia (Kochia scoparia); [17]
  Plant response rating, Kochia: 0
Kochia (Kochia scoparia); [18]
  Plant response rating, Kochia: 0
Kochia (Kochia scoparia); preemergence
  Plant response rating (0 to 100), Kochia: 100
Kochia (Kochia scoparia); [19]
  Plant response rating, Kochia: 90
[11]; [17]
  Plant response rating, Pigweed: 0
[11]; [18]
  Plant response rating, Pigweed: 0
[11]; preemergence
  Plant response rating (0 to 100), Pigweed: 100
[11]; [19]
  Plant response rating, Pigweed: 20
Soybean (Glycine max); [17]
  Plant response rating, Soybean: 0
Soybean (Glycine max); [18]
  Plant response rating, Soybean: 0
Soybean (Glycine max); preemergence
  Plant response rating (0 to 100), Soybean: 0
Soybean (Glycine max); [19]
  Plant response rating, Soybean: 0
[12]; [17]
  Plant response rating, Cupgrass, Woolly: 20
[12]; [18]
  Plant response rating, Cupgrass, Woolly: 0
[12]; preemergence
  Plant response rating (0 to 100), Cupgrass, Woolly: 100
[12]; [19]
  Plant response rating, Cupgrass, Woolly: 20
[13]; [17]
  Plant response rating, Goosegrass: 90
[13]; [18]
  Plant response rating, Goosegrass: 80
[13]; preemergence
  Plant response rating (0 to 100), Goosegrass: 100
[13]; [19]
  Plant response rating, Goosegrass: 100
[14]; [18]
  Plant response rating, Cocklebur: 0
[14]; preemergence
  Plant response rating (0 to 100), Cocklebur: 0
[14]; [19]
  Plant response rating, Cocklebur: 0
[15]; [17]
  Plant response rating, Surinam grass: 0
[15]; [18]
  Plant response rating, Surinam grass: 0
[15]; preemergence
  Plant response rating (0 to 100), Surinam grass: 30
[15]; [19]
  Plant response rating, Surinam grass: 0
Nightshade [16]
  Plant response rating (0 to 100), Nightshade: 0
